Results taken from patent US9163010B2, “Indolinone protein kinase inhibitors” (Beta Pharma, Inc., priority 2011, dated 2015).
pIC50: −log10 of the molar value.

Tests used:
VEGFR-3 (Flt-4) = VEGFR-3 (Flt-4) (Homo sapiens (Human), UniProt P35916); assay: Enzymatic activity, VEGFR-3 inhibition in vitro; type: biochemical
VEGFR-1 (Flt-1) = VEGFR-1 (Flt-1) (Homo sapiens (Human), UniProt P17948); assay: Enzymatic activity, VEGFR-1 inhibition in vitro; type: biochemical; details: read-out: Enzymatic Activities IC50 VEGFR-1 (Flt-1) or VGFR1 FLT1
Chain of VEGFR-1 (Flt-1) (P17948 27-1338): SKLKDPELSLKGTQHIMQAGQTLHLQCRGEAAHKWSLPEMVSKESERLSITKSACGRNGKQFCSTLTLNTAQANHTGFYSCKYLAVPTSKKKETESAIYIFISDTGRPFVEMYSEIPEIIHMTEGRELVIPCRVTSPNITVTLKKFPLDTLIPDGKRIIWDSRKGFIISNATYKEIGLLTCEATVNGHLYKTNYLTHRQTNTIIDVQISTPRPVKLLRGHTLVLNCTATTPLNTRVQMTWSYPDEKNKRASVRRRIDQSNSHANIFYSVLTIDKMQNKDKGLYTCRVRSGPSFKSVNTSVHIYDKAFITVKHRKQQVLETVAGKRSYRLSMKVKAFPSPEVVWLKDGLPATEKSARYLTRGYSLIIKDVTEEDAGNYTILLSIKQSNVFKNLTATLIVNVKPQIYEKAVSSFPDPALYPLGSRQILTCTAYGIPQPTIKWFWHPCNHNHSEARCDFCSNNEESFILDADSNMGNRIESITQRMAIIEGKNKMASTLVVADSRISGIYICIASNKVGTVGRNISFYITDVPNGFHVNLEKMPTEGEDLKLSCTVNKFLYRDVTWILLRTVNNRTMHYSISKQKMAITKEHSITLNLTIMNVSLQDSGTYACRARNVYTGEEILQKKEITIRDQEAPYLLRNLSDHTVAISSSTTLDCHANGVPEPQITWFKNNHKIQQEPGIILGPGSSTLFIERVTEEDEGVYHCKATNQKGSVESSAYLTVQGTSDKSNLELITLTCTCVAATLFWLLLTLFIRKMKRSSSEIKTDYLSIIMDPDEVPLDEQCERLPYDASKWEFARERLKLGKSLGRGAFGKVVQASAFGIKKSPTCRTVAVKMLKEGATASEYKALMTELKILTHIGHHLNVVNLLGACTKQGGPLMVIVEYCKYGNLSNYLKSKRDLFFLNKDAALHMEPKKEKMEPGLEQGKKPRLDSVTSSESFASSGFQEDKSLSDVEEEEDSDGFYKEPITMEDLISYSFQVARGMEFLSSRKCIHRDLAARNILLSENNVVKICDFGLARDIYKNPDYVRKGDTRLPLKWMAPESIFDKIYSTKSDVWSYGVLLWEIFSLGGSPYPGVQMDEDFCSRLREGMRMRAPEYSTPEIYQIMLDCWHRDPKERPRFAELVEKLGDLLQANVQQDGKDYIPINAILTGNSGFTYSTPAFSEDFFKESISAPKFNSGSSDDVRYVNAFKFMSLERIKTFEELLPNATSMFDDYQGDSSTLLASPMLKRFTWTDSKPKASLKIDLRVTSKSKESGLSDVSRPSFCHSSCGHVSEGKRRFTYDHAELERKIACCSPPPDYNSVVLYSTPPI

VEGFR-2 KDR = VEGFR-2 KDR (Homo sapiens (Human), UniProt P35968); assay: Enzymatic activity, VEGFR-2 inhibition in vitro; type: biochemical; details: read-out: Enzymatic Activities IC50 VEGFR-2 KDR or VGFR2 KDR
Chain of VEGFR-2 KDR (P35968 20-1356): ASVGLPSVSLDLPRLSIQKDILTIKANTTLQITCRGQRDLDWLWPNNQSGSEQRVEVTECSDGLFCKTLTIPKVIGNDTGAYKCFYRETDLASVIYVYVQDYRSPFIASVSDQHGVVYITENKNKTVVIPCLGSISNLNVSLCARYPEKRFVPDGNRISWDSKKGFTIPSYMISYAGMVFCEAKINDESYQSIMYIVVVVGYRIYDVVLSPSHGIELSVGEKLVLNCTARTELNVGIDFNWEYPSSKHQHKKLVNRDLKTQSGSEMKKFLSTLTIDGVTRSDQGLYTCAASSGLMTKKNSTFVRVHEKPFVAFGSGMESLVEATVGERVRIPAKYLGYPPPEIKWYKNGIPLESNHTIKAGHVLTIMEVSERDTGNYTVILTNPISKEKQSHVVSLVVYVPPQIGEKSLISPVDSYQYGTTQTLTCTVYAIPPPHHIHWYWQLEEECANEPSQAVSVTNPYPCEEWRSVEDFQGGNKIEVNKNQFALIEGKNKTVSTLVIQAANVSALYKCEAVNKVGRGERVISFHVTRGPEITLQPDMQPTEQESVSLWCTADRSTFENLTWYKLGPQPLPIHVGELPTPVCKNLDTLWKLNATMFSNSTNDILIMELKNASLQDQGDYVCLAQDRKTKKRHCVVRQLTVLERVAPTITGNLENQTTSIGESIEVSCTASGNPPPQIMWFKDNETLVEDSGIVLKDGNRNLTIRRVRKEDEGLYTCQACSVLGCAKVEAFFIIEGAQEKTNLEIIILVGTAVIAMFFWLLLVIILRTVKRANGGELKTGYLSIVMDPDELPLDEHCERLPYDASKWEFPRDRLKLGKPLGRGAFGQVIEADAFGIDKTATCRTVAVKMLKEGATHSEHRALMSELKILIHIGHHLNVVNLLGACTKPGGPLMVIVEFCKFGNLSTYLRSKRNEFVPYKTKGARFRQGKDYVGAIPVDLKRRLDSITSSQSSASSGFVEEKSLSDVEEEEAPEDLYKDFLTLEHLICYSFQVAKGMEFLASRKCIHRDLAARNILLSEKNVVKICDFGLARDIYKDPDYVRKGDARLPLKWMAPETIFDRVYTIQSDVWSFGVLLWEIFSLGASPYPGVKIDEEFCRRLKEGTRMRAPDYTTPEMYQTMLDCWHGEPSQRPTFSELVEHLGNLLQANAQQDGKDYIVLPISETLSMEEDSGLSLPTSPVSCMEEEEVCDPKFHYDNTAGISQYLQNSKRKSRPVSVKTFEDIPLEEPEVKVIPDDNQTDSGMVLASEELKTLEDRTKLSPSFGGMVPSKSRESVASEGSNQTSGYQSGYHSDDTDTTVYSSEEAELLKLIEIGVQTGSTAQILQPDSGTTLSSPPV

[1] = cited from earlier work

Chain of VEGFR-3 (Flt-4) (P35916 25-1363): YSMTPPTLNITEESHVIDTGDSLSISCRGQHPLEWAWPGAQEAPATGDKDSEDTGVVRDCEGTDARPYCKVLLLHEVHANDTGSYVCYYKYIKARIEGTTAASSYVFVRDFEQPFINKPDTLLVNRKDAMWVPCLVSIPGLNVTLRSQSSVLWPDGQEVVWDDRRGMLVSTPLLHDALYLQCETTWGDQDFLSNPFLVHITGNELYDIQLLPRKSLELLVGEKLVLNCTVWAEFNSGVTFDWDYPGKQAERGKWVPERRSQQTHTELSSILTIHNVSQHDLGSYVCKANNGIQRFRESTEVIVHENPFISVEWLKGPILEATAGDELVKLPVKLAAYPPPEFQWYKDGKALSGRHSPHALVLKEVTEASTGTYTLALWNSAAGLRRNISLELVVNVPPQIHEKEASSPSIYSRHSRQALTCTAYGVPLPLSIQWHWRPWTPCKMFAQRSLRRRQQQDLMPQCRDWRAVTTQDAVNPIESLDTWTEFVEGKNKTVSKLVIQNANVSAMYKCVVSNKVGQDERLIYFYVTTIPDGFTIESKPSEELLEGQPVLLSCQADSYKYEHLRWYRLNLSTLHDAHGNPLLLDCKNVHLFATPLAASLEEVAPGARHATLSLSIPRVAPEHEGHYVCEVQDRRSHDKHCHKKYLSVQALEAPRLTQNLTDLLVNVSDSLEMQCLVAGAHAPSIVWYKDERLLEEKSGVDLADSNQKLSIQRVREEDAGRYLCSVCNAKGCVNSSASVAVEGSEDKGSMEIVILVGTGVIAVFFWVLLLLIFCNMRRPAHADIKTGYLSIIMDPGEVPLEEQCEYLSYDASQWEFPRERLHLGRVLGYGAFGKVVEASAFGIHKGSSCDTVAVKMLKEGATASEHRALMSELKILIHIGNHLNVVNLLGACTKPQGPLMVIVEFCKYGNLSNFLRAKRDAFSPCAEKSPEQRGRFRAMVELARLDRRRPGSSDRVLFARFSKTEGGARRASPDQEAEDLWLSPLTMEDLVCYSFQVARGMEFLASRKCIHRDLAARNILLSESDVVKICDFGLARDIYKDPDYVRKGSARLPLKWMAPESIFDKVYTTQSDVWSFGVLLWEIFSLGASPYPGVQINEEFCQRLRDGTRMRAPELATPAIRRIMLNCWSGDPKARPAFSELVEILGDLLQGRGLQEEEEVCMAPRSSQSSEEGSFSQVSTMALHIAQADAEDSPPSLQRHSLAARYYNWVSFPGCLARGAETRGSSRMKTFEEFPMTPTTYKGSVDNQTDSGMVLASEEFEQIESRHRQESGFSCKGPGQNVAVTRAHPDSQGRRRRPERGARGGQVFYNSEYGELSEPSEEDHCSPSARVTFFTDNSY

Compound	Enzymatic Activities IC50 VEGFR-3 (Flt-4) or VGFR3 FLT4 (VEGFR-3 (Flt-4))	pIC50 (VEGFR-1 (Flt-1))	pIC50 (VEGFR-2 KDR)	Patients in whom dose reductions were required to manage toxicities ([1]; patients studied in RCC) [%]	Serious (grade 3 or 4) adverse events, share of patients ([1]; sunitinib therapy, patients)
Cc1[nH]c(/C=C2\C(=O)Nc3ccc(F)cc32)c(C)c1C(=O)N1CCOCCOCCOCC1 [Formula II]	No Inhibition	7.40	8.60	–	–
CCN(CC)CCNC(=O)c1c(C)[nH]c(/C=C2\C(=O)Nc3ccc(F)cc32)c1C [Sunitinib, sunitinib]	–	–	–	50	up to 10%
